Data as given in ChEMBL document CHEMBL3885861, “Open TG-GATES”.

Organism: Rattus norvegicus
Experiment: Open TG-GATES - Regimen: Single
Assay type: toxicity, organism-based, Sprague-Dawley
Set-up: regimen Single, gender Male, age 6 weeks
Settings: in vivo, po, 60 mg/kg, route gavage, dose level Low; for Bas / Eos / Lym / MCHC / MCV / Mono / Neu / RBC / Ret / WBC: tissue Blood; for KIDNEY_L / KIDNEY_R / KIDNEY_TOTAL: tissue Kidney; for LIVER: tissue Liver; for ALP / AST / CRE / DBIL / GLC / IP / K / LDH / Na / PL / RALB / TBIL / TC / TP / gamma-GTP: tissue Plasma

Work on CS(=O)(=O)O.Cc1ccc(NC(=O)c2ccc(CN3CCN(C)CC3)cc2)cc1Nc1nccc(-c2cccnc2)n1 [IMATINIB MESYLATE] yielded a Bas (3 h) of 0%, an Eos (3 h) of 1% and a Lym (3 h) of 73.4%. The MCHC (3 h) was 32.7%, the MCV (3 h) was 63.2 fL and the Mono (3 h) was 3%. The Neu (3 h) was 21.6%, the RBC (3 h) was 603 x10_4/ul and the Ret (3 h) was 9.5%. It also gave a WBC (3 h) of 109.9 x10_2/uL, a KIDNEY_L (3 h) of 0.9 g and a KIDNEY_R (3 h) of 0.9 g. The KIDNEY_TOTAL (3 h) was 1.7 g, the LIVER (3 h) was 9.3 g and the ALP (3 h) was 1755.4 IU/L. The AST (3 h) was 81.6 IU/L, the CRE (3 h) was 0.2 mg/dL and the DBIL (3 h) was 0.008 mg/dL. For the same compound, the GLC (3 h) was 187 mg/dL, the IP (3 h) was 8.6 mg/dL and the K (3 h) was 4.1 meq/L. The LDH (3 h) was 243.6 IU/L, the Na (3 h) was 142.4 meq/L and the PL (3 h) was 150.2 mg/dL. The RALB (3 h) was 4 g/dL, the TBIL (3 h) was 0.03 mg/dL and the TC (3 h) was 82.8 mg/dL. For the same compound, the TP (3 h) was 5.5 g/dL, the gamma-GTP (3 h) was 0.8 IU/L and the Bas (6 h) was 0%. For the same compound, the Eos (6 h) was 0.8%, the Lym (6 h) was 80.6% and the MCHC (6 h) was 32.8%. It also gave an MCV (6 h) of 63.4 fL, a Mono (6 h) of 2% and a Neu (6 h) of 16.2%. It also gave an RBC (6 h) of 618.6 x10_4/ul, a Ret (6 h) of 9.5% and a WBC (6 h) of 104.6 x10_2/uL. For the same compound, the KIDNEY_L (6 h) was 0.9 g, the KIDNEY_R (6 h) was 0.9 g and the KIDNEY_TOTAL (6 h) was 1.8 g. It also gave an LIVER (6 h) of 8.4 g, an ALP (6 h) of 1520 IU/L and an AST (6 h) of 77.6 IU/L. It also gave a CRE (6 h) of 0.2 mg/dL, a DBIL (6 h) of 0.008 mg/dL and a GLC (6 h) of 190.8 mg/dL. It also gave an IP (6 h) of 9.4 mg/dL, a K (6 h) of 4.2 meq/L and an LDH (6 h) of 238 IU/L. It also gave a Na (6 h) of 140.7 meq/L, a PL (6 h) of 152.8 mg/dL and an RALB (6 h) of 4 g/dL. The TBIL (6 h) was 0.03 mg/dL, the TC (6 h) was 82.4 mg/dL and the TP (6 h) was 5.4 g/dL. For the same compound, the gamma-GTP (6 h) was 0.7 IU/L, the Bas (9 h) was 0% and the Eos (9 h) was 1%. It also gave a Lym (9 h) of 73.8%, an MCHC (9 h) of 33% and an MCV (9 h) of 63.2 fL. The Mono (9 h) was 2.2%, the Neu (9 h) was 22.6% and the RBC (9 h) was 613.6 x10_4/ul. It also gave a Ret (9 h) of 8.7%, a WBC (9 h) of 94.3 x10_2/uL and a KIDNEY_L (9 h) of 0.8 g. For the same compound, the KIDNEY_R (9 h) was 0.9 g, the KIDNEY_TOTAL (9 h) was 1.7 g and the LIVER (9 h) was 8.2 g. The ALP (9 h) was 1712.2 IU/L, the AST (9 h) was 75.4 IU/L and the CRE (9 h) was 0.2 mg/dL. For the same compound, the DBIL (9 h) was 0.006 mg/dL, the GLC (9 h) was 183.2 mg/dL and the IP (9 h) was 9.4 mg/dL. It also gave a K (9 h) of 4 meq/L, an LDH (9 h) of 176.4 IU/L and a Na (9 h) of 140 meq/L. The PL (9 h) was 137.4 mg/dL, the RALB (9 h) was 4 g/dL and the TBIL (9 h) was 0.016 mg/dL. It also gave a TC (9 h) of 77.8 mg/dL, a TP (9 h) of 5.5 g/dL and a gamma-GTP (9 h) of 0.7 IU/L. It also gave a Bas (24 h) of 0%, an Eos (24 h) of 0.6% and a Lym (24 h) of 85%. It also gave an MCHC (24 h) of 33.1%, an MCV (24 h) of 64.4 fL and a Mono (24 h) of 2.4%. The Neu (24 h) was 11.6%, the RBC (24 h) was 590.4 x10_4/ul and the Ret (24 h) was 8.2%. For the same compound, the WBC (24 h) was 87.7 x10_2/uL, the KIDNEY_L (24 h) was 0.9 g and the KIDNEY_R (24 h) was 0.9 g. For the same compound, the KIDNEY_TOTAL (24 h) was 1.8 g, the LIVER (24 h) was 10 g and the ALP (24 h) was 1709.8 IU/L. For the same compound, the AST (24 h) was 77.2 IU/L, the CRE (24 h) was 0.2 mg/dL and the DBIL (24 h) was 0.002 mg/dL. It also gave a GLC (24 h) of 186.4 mg/dL, an IP (24 h) of 7.6 mg/dL and a K (24 h) of 4 meq/L. For the same compound, the LDH (24 h) was 197 IU/L, the Na (24 h) was 142.7 meq/L and the PL (24 h) was 162.8 mg/dL. The RALB (24 h) was 4.1 g/dL, the TBIL (24 h) was 0.006 mg/dL and the TC (24 h) was 85.4 mg/dL. The TP (24 h) was 5.7 g/dL.
